The values below come from publication PMC9775191, “A Subset Screen of the Compounds Australia Scaffold Library Identifies 7-Acylaminodibenzoxazepinones as Potent and Selective Hits for Anti-Giardia Drug Discovery” (Biomedicines, 2022).

Where two headings read alike, the source gives them in different places.

Test [1] deals with Klebsiella pneumoniae (ATCC 700603). The test is described as follows: Anti-bacterial activity assay. The test is classed as cell-based. The following applies: ATCC700603, 50 µM, read-out: Bacterial Inhibition K. pneumoniae. On the procedure: (§1) The activity of compounds against methicillin resistant Staphylococcus aureus (ATCC 43300), Escherichia coli (ATCC 25922), Acinetobacter baumannii (ATCC 19606) and Klebsiella pneumoniae (ATCC 700603) was assessed at 50 µM in duplicate as previously described. In brief, mid-log phase bacteria cultures were added to 384-well microtiter plate wells containing compound to final cell density of 5 × 10^5 CFU/mL in 50 µL. Plates were then covered and incubated at 37 °C for 18 h without shaking. Inhibition of bacterial growth was determined by measuring absorbance at 600 nm (Tecan M1000 Pro monochromator plate reader) and calculating percentage growth inhibition relative to the negative media and bacteria without inhibitors. Vancomycin hydrochloride (Sigma-Aldrich an affiliate of Merck KGaA, Darmstadt, Germany, #861987) and colistin sulfate (Sigma-Aldrich an affiliate of Merck KGaA, Darmstadt, Germany, C4461) were on each plate as positive controls for Gram-positive (S. aureus) and Gram-negative (E. coli, A. baumannii and K. pneumoniae) bacteria, respectively.

Test [2] relates to Escherichia coli (ATCC 25922). As to the kind of experiment: Anti-bacterial activity assay. The test is classed as cell-based. The following applies: for inhibition at 50 µM: Escherichia coli, ATCC25922, 50 µM, read-out: Bacterial Inhibition E. coli. On the procedure:
as §1

The test system of test [3] is methicillin resistant Staphylococcus aureus (ATCC 43300). The test is described as follows: Anti-bacterial activity assay. The test is classed as cell-based. The conditions noted are these: for inhibition at 50 µM: Staphylococcus aureus, ATCC43300, 50 µM, read-out: Bacterial Inhibition S. aureus. How it is done:
as §1

In test [4] the test system is Acinetobacter baumannii (ATCC 19606). The test is described as follows: Anti-bacterial activity assay. Type of test: cell-based. The conditions noted are these: ATCC19606, 50 µM. How it is done:
as §1

Test [5] concerns G. duodenalis BRIS/91/HEPU/1279. The test is described as follows: Primary Giardia screen at 10 µM (live-cell imaging, automated counting). Type of test: cell-based, Giardia duodenalis. The conditions noted are these: for inhibition at 10 µM: Giardia duodenalis. In outline:
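Compounds were tested once each at 10 μM final (0.2% DMSO) in culture medium under 3% O2, 5% CO2 in N2. Growth was read at 24 and 48 h by live-cell imaging with automated counting, and inhibition expressed as percent growth versus 0.2% DMSO vehicle after media-only background subtraction.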

Test [6] has as its system Neonatal foreskin fibroblast (NFF) cells. As to the kind of experiment: Mammalian cell cytotoxicity assay (sulforhodamine B). Type of test: cell-based, human. The conditions noted are these: for inhibition at 20 µM / IC50: Homo sapiens, NFF; for inhibition at 20 µM: ±SD; for SI (48h Gd): NFF vs 48 h Giardia IC50. How it is done: The selectivity of compounds of interest was assessed against NFF cells. Assays were performed using sulforhodamine B and included media only, negative (no compound, no DMSO), and vehicle (DMSO) controls as previously described. A chloroquine control plate was included in each assay. […] Repurchased SN00797640 was tested in dose–response from 100 µM against NFF. Selectivity indices (SI) were calculated by dividing mammalian cell IC50 values by G. duodenalis BRIS/91/HEPU/1279 IC50 values.

Test [7] deals with G. duodenalis BRIS/91/HEPU/1279. The test is described as follows: Giardia dose response assay, assemblage B. The test is classed as cell-based, Giardia duodenalis. On the procedure: In these assays, compounds were serially diluted (8–12-point doubling dilutions in technical duplicate) in DMSO control media, with all test wells inoculated with parasites (1.5 × 10^4 parasites for BRIS/91/HEPU/1279 and BRIS/91/HEPU/1279m1, or 3 × 10^3 parasites for BRIS/87/HEPU/713). […] All plates were sealed in culture chambers and gassed with 3% O2, 5% CO2 in N2 and incubated at 37 °C for 48 h, with parasites imaged and enumerated at 24 and 48 h. Growth inhibition was calculated as a percentage relative to vehicle controls minus any background as described above and IC50 values were determined using log-linear interpolation as previously described. […] Statistical comparison of IC50 values when required were performed using Student’s t-test.

[8] abbreviates: 24 h, first singlicate assay, read-out: % Inhibition n=1 24h.
Where [9] appears, read: 24 h, re-assessment, read-out: % Inhibition n=2 24h.
Setting [10] is: 24 h, read-out: Average % Inhibition 24h.
Setting [11] is: 48 h, first singlicate assay, read-out: % Inhibition n=1 48h.
Where [12] appears, read: 48 h, re-assessment, read-out: % Inhibition n=2 48h.
Where [13] appears, read: 48 h, read-out: Average % Inhibition 48h.
The mark [14] stands for this setting: Giardia duodenalis, 24 h, read-out: G. duodenalis IC50 24h, Table S2, 24 h, ±SD, max 10 µM.
Where [15] appears, read: Giardia duodenalis, 48 h, Table S2, 48 h, ±SD, max 10 µM, read-out: G. duodenalis IC50 48h.

`O=C(Nc1nc(-c2ccco2)c(-c2ccco2)s1)c1ccccc1` [SN00769776, O=C(Nc1sc(c2ccco2)c(n1)c1ccco1)c1ccccc1]: the inhibition at 50 µM in test [1] is 32.1%; in test [2], 8.92%; in test [3], 6.45%; in test [4] it was 23.4%. Moreover, the inhibition at 10 µM in test [5] (setting [8]) turned out to be 35.4%; in test [5] (setting [9]) it was 19%; in test [5] (setting [10]) it was 27.2%; in test [5] (setting [11]), 77.6%; in test [5] (setting [12]) it was 64.8%; in test [5] (setting [13]), 71.2%. Further, the inhibition at 20 µM in test [6] stood at 24.8 ± 11.7%. For the same compound, the IC50 in test [7] (setting [14]) and in test [7] (setting [15]) was over 10 µM throughout.

Regarding `COc1cc(OC)c(C2=CCN(C(=O)c3ccc(C)s3)CC2)c(OC)c1` [SN00769982, COc1cc(OC)c(C2=CCN(CC2)C(=O)c2ccc(C)s2)c(OC)c1], the inhibition at 50 µM worked out at 15.6% in test [1], 6.08% in test [2], 3.41% in test [3] and 2.57% in test [4]. Further, the inhibition at 10 µM in test [5] (setting [8]) worked out at 46.2%; in test [5] (setting [9]), 0%; in test [5] (setting [10]), 23.1%; in test [5] (setting [11]) it was 78.1%; in test [5] (setting [12]), 40.5%; in test [5] (setting [13]), 59.3%. Besides, the inhibition at 20 µM in test [6] was -9.1 ± 3.8%. For the same compound, the results for the IC50 in test [7] (setting [14]) and in test [7] (setting [15]) were over 10 µM and 9.59 µM, respectively.

As for `O=[N+]([O-])c1ccc(N2CCC(c3ncc[nH]3)CC2)c2ccncc12` [SN00772378, O=N(=O)c1ccc(N2CCC(CC2)c2ncc[nH]2)c2ccncc12], the inhibition at 50 µM in test [1] amounted to 15.6%; in test [2], 5.55%; in test [3], 34.4%; in test [4], 4.73%. In addition, the inhibition at 10 µM in test [5] (setting [8]) turned out to be 80.4%; in test [5] (setting [9]), 47.7%; in test [5] (setting [10]), 64%; in test [5] (setting [11]), 88.7%; in test [5] (setting [12]), 87.4%; in test [5] (setting [13]), 88%. Also, the inhibition at 20 µM in test [6] is 1.2 ± 1%. The IC50 in test [7] (setting [14]) is over 10 µM; in test [7] (setting [15]), 4.79 ± 1.45 µM.

For the compound `COc1ccc(-c2csc(C3=C(N)N(CC(C)(C)CN(C)C)CC3=O)n2)cc1OC` [SN00776314, COc1cc(ccc1OC)c1csc(n1)C1=C(N)N(CC1=O)CC(C)(C)CN(C)C], the inhibition at 50 µM in test [1] came to 10.9%; in test [2], 5.58%; in test [3], 13.2%; in test [4] it was 9.53%. Further, the inhibition at 10 µM in test [5] (setting [8]) amounted to 31.7%; in test [5] (setting [9]), 16.2%; in test [5] (setting [10]), 24%; in test [5] (setting [11]), 85.1%; in test [5] (setting [12]), 68.5%; in test [5] (setting [13]), 76.8%. Further, in test [7] (Giardia duodenalis, read-out: % inhibition @ 10µM 48h (comment), Table S2 comment, 10 µM, 48 h), the inhibition at 10 µM stood at 48.3%. Further, the inhibition at 20 µM in test [6] was 24 ± 26.8%. In test [6] (Table S2), the “SI (48h Gd)” value is given as over 2. The IC50 in test [7] (setting [14]) was over 10 µM; in test [7] (setting [15]), 9.16 µM.

With `COc1ccc(C)cc1N1C(=O)C(c2ccccc2)C(c2nc3ccccc3s2)=C1N` (centres unmarked) [SN00776374, COc1ccc(C)cc1N1C(=C(c2nc3ccccc3s2)C(c2ccccc2)C1=O)N], the inhibition at 50 µM in test [1] amounted to 11.7%; in test [2], 2.94%; in test [3] it was 16.6%; in test [4] it was 13.3%. Further, in test [5] (48 h), the “Average % Inhibition 48h” value is over 90%. Further, the inhibition at 10 µM in test [5] (setting [8]) amounted to 90.5%; in test [5] (setting [9]), 90%; in test [5] (setting [10]), 90.3%; in test [5] (setting [11]), 95.8%; in test [5] (setting [12]) it was 97.6%; in test [5] (setting [13]), 96.7%. Also, in test [6], the inhibition at 20 µM amounted to 100.4 ± 0.2%. The “SI (48h Gd)” value in test [6] (Table S2) was under 20. Moreover, the IC50 came out at 1.76 ± 0.35 µM in test [7] (setting [14]) and 1.01 ± 0.29 µM in test [7] (setting [15]).

With `Cc1cc(-c2cc(C(=O)Nc3ccc(N4CCN(C)CC4)nc3)c3cnn(C(C)C)c3n2)c(C)o1` [SN00776497], the inhibition at 50 µM in test [1] stood at 8.25%; in test [2], 5.45%; in test [3], 55.8%; in test [4], 19.6%. The “selectivity index over bacteria” value in test [2] (E. coli, A. baumannii and K. pneumoniae / bacteria, Table S2) is listed as over 600. Also, in test [3] (50 µM), the “Bacterial Inhibition S. aureus” value came to 56%. For the same compound, in test [5] (48 h), the “Average % Inhibition 48h” value is listed as over 90%. The inhibition at 10 µM amounted to 94.6% in test [5] (setting [8]); 97.2% in test [5] (setting [9]); 95.9% in test [5] (setting [10]); 98% in test [5] (setting [11]); 98.5% in test [5] (setting [12]); 98.2% in test [5] (setting [13]). The IC50 came to 8.1 µM in test [6] (mean ± SD, read-out: IC50 NFF); 0.25 ± 0.27 µM in test [7] (setting [14]); 0.08 µM in test [7] (Giardia duodenalis, 48 h, BRIS/91/HEPU/1279, 48 h, mean ± SD, read-out: IC50 Giardia (48 h)). Moreover, in test [6] (NFF IC50 divided by G. duodenalis BRIS/91/HEPU/1279 IC50), the Selectivity worked out at 101. In addition, the “SI (48h Gd)” value in test [6] (Table S2) amounted to 101. In addition, the “fold more potent than metronidazole” value in test [7] (48 h IC50) is recorded as over 30 fold.

For the compound `O=S1(=O)CCC(n2cc(-c3cnn(-c4ccccc4)c3)cn2)C1` (centres unmarked) [SN00776738, O=S1(=O)CCC(C1)n1ncc(c1)c1cnn(c1)c1ccccc1], the inhibition at 50 µM in test [1] is 6.87%; in test [2], 5.37%; in test [3] it was -13.4%; in test [4], -4.28%. Also, the inhibition at 10 µM came out at 46.8% in test [5] (setting [8]); 44.3% in test [5] (setting [9]); 45.5% in test [5] (setting [10]); 52.3% in test [5] (setting [11]); 80.1% in test [5] (setting [12]); 66.2% in test [5] (setting [13]). The inhibition at 20 µM in test [6] is 16 ± 0.6%. In addition, the IC50 in test [7] (setting [14]) and in test [7] (setting [15]) was over 10 µM throughout.

In the case of `Cc1cc2[nH]c(C(=O)Nc3ccccc3C)c(CN3CCOCC3)c2s1` [SN00798525, Cc1cc2[nH]c(C(=O)Nc3ccccc3C)c(CN3CCOCC3)c2s1], the inhibition at 50 µM was 6.11% in test [1], -0.27% in test [2], 22.2% in test [3] and 4.92% in test [4]. The “Average % Inhibition 48h” value in test [5] (48 h) was over 90%. Moreover, the inhibition at 10 µM in test [5] (setting [8]) amounted to 91.4%; in test [5] (setting [9]), 97.9%; in test [5] (setting [10]), 94.7%; in test [5] (setting [11]), 96.5%; in test [5] (setting [12]), 98.8%; in test [5] (setting [13]), 97.6%. In test [6] (Table S2, max 10 µM, read-out: NFF IC50), the IC50 was over 10 µM.

The inhibition is the drop in the measured response relative to a control, in per cent. As usually defined, the IC50 is the concentration that gives 50% inhibition.
